This note sets out measurements from US7947854B2, “Bis-cationic compounds and use thereof” (The University of Sydney, priority 2003, dated 2011).

Marks after values point to notes of the source that are not given here.

Common to all, as to assay type: biochemical, Cryptococcus neoformans H99
Holding throughout (conditions): modifier 10 mM (Triton X-100 0.1% w/v)

The subject of experiment [1] is cytosolic phospholipase B (LPL/LPTA activities). The experiment can be described thus: Radiometric assay, cytosolic LPL/LPTA activities. On the procedure:
(§1) Fungal isolates and media. […] Isolate H99 was kindly supplied by Dr. Gary Cox (Duke University Medical Center, Durham, N.C., USA), and subcultured onto Sabouraud dextrose agar (SDA) at 30° C.
(§2) Cellular disruption to prepare membrane and cytosolic fractions. The cell pellet from the preparation of the supernatant, above, was also frozen at −70° C. After washing twice with imidazole buffer, it was disrupted in the presence of a protease inhibitor cocktail (P 8215 for fungal and yeast cells; 4-(2-aminoethyl)benzenesulfonyl fluoride hydrochloride, 100 mM, 1,10-phenanthroline, 500 mM, pepstatin A, 2.2 mM, E-64, 1.4 mM; Sigma) in a MiniBeadbeater-8 Cell Disrupter (MBB-8; Daintree Scientific, Tasmania, Australia) for three cycles of 1 min, alternating with a 1 min cooling period on ice. The homogenate was centrifuged at 14,000 g for 15 min to obtain the membrane (pellet) and the cytosolic (supernatant) fractions.
(§3) Secreted LPL and LPTA activities were measured simultaneously in a reaction mixture containing 1-[^14C]palmitoyl lyso-PC (25,000 dpm) and carrier lyso-PC (final concentration 200 μM) in assay buffer. The reaction time was […] with 1 μg of total protein and LPL activity was measured by the rate of loss of 1-[^14C]palmitoyl lyso-PC with release of radiolabelled fatty acids. LPTA activity was estimated from the rate of formation of radiolabelled PC.
(§4) All reactions were terminated by adding 0.5 mL of chloroform:methanol (2:1 v/v). The reaction products were extracted by the method as disclosed in Bligh, E. C. and W. J. Dyer. 1959 ‘A rapid method of total lipid extraction and purification.’ Can. J. Biochem. Physiol. 37:911-917, separated by TLC and quantified as previously described. In the case of PLC activity, the TLC plates were developed in petroleum ether (BP 60-80° C.): diethyl ether: acetic acid (90:15:1, v/v/v) instead of chloroform:methanol:water (65:25:4, v/v/v).
(§5) All experiments were carried out in duplicate or triplicate. The effects of pH on the various phospholipase activities were measured using 50 mM final concentration of imidazole-acetate buffer (pH range 3-5), MES buffer (pH range 6-8) and glycine buffer (pH 9-10). Controls for non-enzymic breakdown of substrates were included at all pH values. Cations, Triton X-100 and metal chelators were made up as stock solutions in water and diluted to the final concentration in the appropriate assay buffer.
(§6) Preparation of inhibitors and use in assays. The following compounds were tested (for structures, see FIG. 2): compound 1, 1,12-bis(tributylphosphonium)dodecane dibromide (Fluka AG, Buchs, Switzerland); compound 2, 1,10-bis(tributylammonium)-decane dibromide; compound 3, 1,12-bis(tributylammonium)do-decane dibromide (both synthesised in-house); compound 4, 1,10-bis(trimethylammonium)decane dibromide [“decamethonium”] (Sigma, St. Louis Mo., USA). All compounds were prepared as stock solutions of 700 μM in assay buffer containing 5 mM EDTA, which was then diluted serially with buffer to obtain solutions of 70, 7, 0.7 and 0.07 μM. In each assay, 45 μL of these solutions was used, and the final volume of 125 μL was made up of substrate, enzyme and buffer. The radiometric assay was carried out as above. Inhibition was calculated as the percent of substrates (DPPC or Lyso-PC) remaining in the case of PLB and LPL activities, or of DPPC produced, in the case of the LPTA activity. The amounts converted, or produced, in the inhibitor-free control were normalised to 100%, and the inhibition calculated against it. All assays were done in triplicate.
(§7) Under these conditions only PLB, LPL and LPTA activities (both secreted and cell-associated) were measured. Initially, compounds deemed to be potential inhibitors were assayed at 25 and 250 μM.

Experiment [2] has as its system cytosolic phospholipase B (PLB activity). The experiment can be described thus: Radiometric assay, cytosolic PLB activity. Here is the method:
as §1, §2
(§8) Radiometric assay method for phospholipases. Enzyme activities were measured as described previously in a final volume of 125 μL at 37° C. For the determination of secreted PLB activity, carrier dipalmitoyl phosphatidylcholine (DPPC, final concentration 800 μM) and 1,2-di[1-^14C] palmitoyl phosphatidylcholine (20,000 dpm) were dried under nitrogen and suspended in 125 mM imidazole acetate buffer (assay buffer, pH 4.0) by sonication using a Branson 450 sonifier. The reaction time was 22 min, using 1 μg total protein and PLB activity was determined by the rate of decrease of the radiolabelled PC substrate, with appearance of the label in free fatty acid. This assay also simultaneously allows for the determination of phospholipase A, C and D activities. These activities were measured by the appearance of radiolabel from PC in Lyso PC, diacylglycerol and phosphatidic acid, respectively.
as §4, §5
(§9) Preparation of inhibitors and use in assays. The following compounds were tested (for structures, see FIG. 2): compound 1, 1,12-bis(tributylphosphonium)dodecane dibromide (Fluka AG, Buchs, Switzerland); compound 2, 1,10-bis(tributylammonium)-decane dibromide; compound 3, 1,12-bis(tributylammonium)do-decane dibromide (both synthesised in-house); compound 4, 1,10-bis(trimethylammonium)decane dibromide [“decamethonium”] (Sigma, St. Louis Mo., USA). All compounds were prepared as stock solutions of 700 μM in assay buffer containing 5 mM EDTA, which was then diluted serially with buffer to obtain solutions of 70, 7, 0.7 and 0.07 μM. In each assay, 45 μL of these solutions was used, and the final volume of 125 μL was made up of substrate, enzyme and buffer. The radiometric assay was carried out as above.

Experiment [3] relates to membrane-associated phospholipase B (LPL/LPTA activities). Briefly: Radiometric assay, membrane-associated LPL/LPTA activities. Here is the method:
as §1, §2, §3, §4, §5, §6, §7

Experiment [4] concerns membrane-associated phospholipase B (PLB activity). Briefly: Radiometric assay, membrane-associated PLB activity. On the procedure: as §1, §2, §8, §4, §5, §9

`[Ca+2]` [Calcium]: the entries for the “Cytosolic LPL activity, percentage of the control” value (“Cytosolic LPL activity, percentage” for short) in experiment [1] (pH 4.0) and in experiment [1] (pH 7.0) were 100% and 236%, respectively. The entries for the “Cytosolic LPTA activity, percentage of the control” value (“Cytosolic LPTA activity, percentage” for short) in experiment [1] (pH 4.0) and in experiment [1] (pH 7.0) were 100% and 206%, respectively. Further, the “Cytosolic PLB activity, percentage of the control” value (from here on “Cytosolic PLB activity, percentage”) in experiment [2] (pH 4.0) is 100%; in experiment [2] (pH 7.0) it was 591* %. In addition, the “Membrane-associated LPL activity, percentage of the control” value in experiment [3] (pH 4.0) is 100%; in experiment [3] (pH 7.0) it was 166* %. The figures for the “Membrane-associated LPTA activity, percentage of the control” value in experiment [3] (pH 4.0) and in experiment [3] (pH 7.0) were 96% and 140* %, respectively. The “Membrane-associated PLB activity, percentage of the control” value in experiment [4] (pH 4.0) is reported as 83%; in experiment [4] (pH 7.0) it was 533* %.
As for `O=C(O)CN(CCN(CC(=O)O)CC(=O)O)CC(=O)O` [EDTA, ethylenediaminetetraacetic acid], the “Cytosolic LPL activity, percentage” value in experiment [1] (pH 4.0) is 100%; in experiment [1] (pH 7.0), 30%. For the same compound, the “Cytosolic LPTA activity, percentage” value in experiment [1] (pH 4.0) came out at 100%; in experiment [1] (pH 7.0) it was 32%. The “Cytosolic PLB activity, percentage” value in experiment [2] (pH 4.0) and in experiment [2] (pH 7.0) was 100% each time. Also, the entries for the “Membrane-associated LPL activity, percentage of the control” value in experiment [3] (pH 4.0) and in experiment [3] (pH 7.0) were 98% and 96%, respectively. For the same compound, the results for the “Membrane-associated LPTA activity, percentage of the control” value in experiment [3] (pH 4.0) and in experiment [3] (pH 7.0) were 94% and 100%, respectively. Further, the “Membrane-associated PLB activity, percentage of the control” value in experiment [4] (pH 4.0) was 87%; in experiment [4] (pH 7.0), 67%.
Turning to `O=C(O)CN(CCOCCOCCN(CC(=O)O)CC(=O)O)CC(=O)O` [EGTA, ethyleneglycoldiamine tetraacetic acid], the “Cytosolic LPL activity, percentage” value came out at 86% in experiment [1] (pH 4.0) and 26% in experiment [1] (pH 7.0). The entries for the “Cytosolic LPTA activity, percentage” value in experiment [1] (pH 4.0) and in experiment [1] (pH 7.0) were 88% and 29%, respectively. Also, the “Cytosolic PLB activity, percentage” value in experiment [2] (pH 4.0) was determined as 100%; in experiment [2] (pH 7.0), 163%. The “Membrane-associated LPL activity, percentage of the control” value in experiment [3] (pH 4.0) and in experiment [3] (pH 7.0) was 100% each time. Also, the figures for the “Membrane-associated LPTA activity, percentage of the control” value in experiment [3] (pH 4.0) and in experiment [3] (pH 7.0) were 90% and 100%, respectively. In addition, the “Membrane-associated PLB activity, percentage of the control” value in experiment [4] (pH 4.0) is 77%; in experiment [4] (pH 7.0), 200%.
Consider `[Cl][Fe]([Cl])[Cl]` [FeCl3], for which the “Cytosolic LPL activity, percentage” value in experiment [1] (pH 4.0) came out at 81%; in experiment [1] (pH 7.0), 22%. The “Cytosolic LPTA activity, percentage” value in experiment [1] (pH 4.0) worked out at 78%; in experiment [1] (pH 7.0), 21%. In addition, the “Cytosolic PLB activity, percentage” value is given as 79% in experiment [2] (pH 4.0) and 61% in experiment [2] (pH 7.0). Besides, the “Membrane-associated LPL activity, percentage of the control” value in experiment [3] (pH 4.0) is listed as 97%; in experiment [3] (pH 7.0) it was 61* %. For the same compound, the “Membrane-associated LPTA activity, percentage of the control” value is listed as 75% in experiment [3] (pH 4.0) and 45* % in experiment [3] (pH 7.0). Moreover, the “Membrane-associated PLB activity, percentage of the control” value in experiment [4] (pH 4.0) is reported as 92%; in experiment [4] (pH 7.0), 2* %.
Turning to `[Mg+2]` [Magnesium], the “Cytosolic LPL activity, percentage” value in experiment [1] (pH 4.0) worked out at 73%; in experiment [1] (pH 7.0) it was 96%. Besides, the “Cytosolic LPTA activity, percentage” value in experiment [1] (pH 4.0) came to 70%; in experiment [1] (pH 7.0), 85%. The results for the “Cytosolic PLB activity, percentage” value in experiment [2] (pH 4.0) and in experiment [2] (pH 7.0) were 100% and 477* %, respectively. In addition, the “Membrane-associated LPL activity, percentage of the control” value was 97% in experiment [3] (pH 4.0) and 145* % in experiment [3] (pH 7.0). Further, the figures for the “Membrane-associated LPTA activity, percentage of the control” value in experiment [3] (pH 4.0) and in experiment [3] (pH 7.0) were 91% and 123* %, respectively. In addition, the entries for the “Membrane-associated PLB activity, percentage of the control” value in experiment [4] (pH 4.0) and in experiment [4] (pH 7.0) were 79% and 467* %, respectively.
For the compound Triton X-100, the “Cytosolic LPL activity, percentage” value was determined as 62% in experiment [1] (pH 4.0) and 0.9% in experiment [1] (pH 7.0). For the same compound, the “Cytosolic LPTA activity, percentage” value is reported as 39% in experiment [1] (pH 4.0) and 0% in experiment [1] (pH 7.0). For the same compound, the “Cytosolic PLB activity, percentage” value is reported as 54* % in experiment [2] (pH 4.0) and 59% in experiment [2] (pH 7.0). Moreover, the figures for the “Membrane-associated LPL activity, percentage of the control” value in experiment [3] (pH 4.0) and in experiment [3] (pH 7.0) were 71% and 4* %, respectively. The “Membrane-associated LPTA activity, percentage of the control” value is reported as 52% in experiment [3] (pH 4.0) and 2* % in experiment [3] (pH 7.0). Moreover, the “Membrane-associated PLB activity, percentage of the control” value in experiment [4] (pH 4.0) is listed as 19%; in experiment [4] (pH 7.0), 33* %.
